# In publication PMC3224971, “An exo-cell assay for examining real-time γ-secretase activity and inhibition” (Molecular Neurodegeneration, 2009):
# Assays:
# γ-secretase [1] = biological target: T1, γ-secretase (Homo sapiens, UniProt P49768); test: extended exo-cell γ-secretase assay in HeLa cells; assay type: cell-based
# Method: (§1) Cells were seeded at their indicated concentration in 96-well plates and allowed to attach overnight (Fig. 1c). The next day, media was removed and cells were washed once with PBS. Fresh media was then added containing 0.25% CHAPSO detergent, Sb4 substrate to a final concentration of 1 μM, and 1% DMSO or γ-secretase inhibitor. This was incubated for 2.5 hours at 37°C. Media was removed and cell debris was pelleted from this media for 5 min. at 3,500 rpm's. Supernatant was then added to ruthenylated G2-10* antibody that recognizes cleaved product, but not uncleaved substrate. This was incubated for an additional 2 hours at room temperature. Finally, magnetic streptavidin beads were added to a final concentration of 80 μg/ml and incubated for 30 min. at room temperature. Assay buffer was added to the samples and γ-secretase-mediated cleavage of substrate was monitored using electrochemiluminescence (ECL). Protocol for HTRF detection can be found below.
# Conversely, an extended exo-cell assay was performed whereby cells were seeded and allowed to attach overnight as previously described. However, the next day media was removed and replaced with fresh media containing 1% DMSO or γ-secretase inhibitor. These were incubated for 24 hours at 37°C. Following this incubation, the cells were washed once with PBS and fresh media containing detergent and substrate were added. […]
# γ-secretase [2] = biological target: T2, γ-secretase (Mus musculus, UniProt P49769); test: cell-based γ-secretase assay in N2A cells stably overexpressing APP; conditions: 24 hours with GSI, Aβ 40-site cleavage, ECL detection
# Method: The cell-based assay utilized N2A mouse neuroblastoma cells that stably overexpress the amyloid precursor protein. These were incubated with γ-secretase inhibitors in a final concentration of 1% DMSO for 24 hours. Following incubation, the supernatant was removed from the cells and assayed for Aβ 40-site cleaved APP product using ruthenylated G2-10* antibody as well as biotinylated 4G8 antibody.
# γ-secretase [3] = biological target: T1, γ-secretase; test: exo-cell γ-secretase assay in HeLa cells; assay type: cell-based; conditions: HeLa cells incubated simultaneously with GSI, 1 μM Sb4 and 0.25% CHAPSO, 2.5 hours; ECL detection
# Method: as §1
# Homogeneous time-resolved fluorescence (HTRF) was also incorporated for the exo-cell assay detection of cleaved substrate. […] Exo-cell supernatent and HTRF detection mix were incubated together for 5 hours in a 384-well plate and then activity was measured by stimulating at 337 nm and reading at 665 nm.
# A20 mouse lymphoma cells = test: lymphoma proliferation assay ([3H]thymidine incorporation); assay type: cell-based; conditions: for inhibition of cellular proliferation (in words): 48 hours of treatment
# Method: A20 mouse lymphoma cells were seeded in a 96-well plate at a concentration of 5 × 10^5 cells/ml in 100 μl RPMI media containing 2% fetal bovine serum. An additional 100 μl of media containing DMSO or γ-secretase inhibitor was added and incubated for 48 hours at 37°C. After this incubation, the cells were incubated for 5 hours with 2 μCi/ml [^3H]thymidine at 37°C. Proliferative response was then evaluated by harvesting the tritiated DNA from cells using a Skatron cell harvester and proliferation assessed as a function of [^3H]thymidine incorporation measured on a β-counter.
# γ-secretase [4] = biological target: T1, γ-secretase; test: in vitro γ-secretase assay with Sb4 substrate and solubilized γ-secretase; assay type: biochemical; conditions: Sb4 substrate, 0.25% CHAPSO, solubilized γ-secretase, 2.5 hours at 37°C, ECL detection
# Method: The in vitro and cell-based γ-secretase assays were performed similarly as previously described. Briefly, the recombinant Sb4 substrate was incubated for 2.5 hours at 37°C in pH 7.0 PIPES buffer in the presence of 0.25% CHAPSO detergent and solubilized γ-secretase at a final concentration of 40 ng/ul. The detection of cleaved substrate was determined using ruthenylated G2-10* antibody. Due to biotinylation of the Sb4 substrate, this eliminated the additional use of 6E10 biotinylated antibody from the original protocol.
# γ-secretase [5] = biological target: T2, γ-secretase; test: real-time exo-cell γ-secretase assay in A20 mouse lymphoma cells; assay type: cell-based; conditions: 300 nM, 48 hours treatment
# Method: Figure 4 Examination of real-time γ-secretase activity in A20 lymphoma and in primary B-CLL patient samples. (a) Correlation between real-time inhibition of γ-secretase activity and GSI-mediated inhibition of A20 mouse lymphoma proliferation. Two 96-well plates were seeded with 50,000 A20 mouse lymphoma cells per well in 100 μl RPMI media. To each of these plates an additional 100 μl of media was added containing DMSO or GSI-34 to indicated final concentration. These plates were incubated for 48 hours at 37°C. Following this incubation, one plate was used in a real-time exo-cell assay to quantitate the real-time inhibition of γ-secretase in A20 cells. Briefly, A20 cells were pelleted and media removed. Fresh media containing 1 μM Sb4 substrate and 0.25% CHAPSO detergent were added and the exo-cell assay was performed. For each assay point n = 4, and s.d. is plotted. Additionally, to the other 96-well plate 2 μCi/ml [^3H]thymidine was incubated with the cells for 5 hours. Following 5-hour incubation at 37°C, the amount of tritiated DNA was quantified on a β-counter. For each proliferation assay point n = 10, and s.d. is plotted. (b) Real-time γ-secretase activity in primary B-CLL patient samples. […] Assay buffer was added to the samples and γ-secretase-mediated cleavage of substrate was monitored using electrochemiluminescence (ECL). […]
inhibition of γ-secretase activity (in words) (γ-secretase [1]; HeLa cells treated 24 hours with varying concentrations),IC50 (γ-secretase [4]),inhibition at 0.3 µM (γ-secretase [5]),SMILES,"IC50 (γ-secretase [1]; HeLa cells incubated with GSI for 24 hours, washed, then Sb4 and CHAPSO, ECL detection)",IC50 (γ-secretase [2]),IC50 (γ-secretase [3]),inhibition of cellular proliferation (in words) (A20 mouse lymphoma cells),"reduction of cellular proliferation (A20 mouse lymphoma cells; 300 nM, 48 hours treatment)"
–,–,–,CC(NC(=O)Cc1cc(F)cc(F)c1)C(=O)NC1N=C(c2ccccc2)c2ccccc2N(C)C1=O (stereo not shown) [Compound E],2.8 nM,4.6 nM,3.8 nM,able to inhibit cellular proliferation,–
Dose-dependent inhibition,1 nM,~80%,O=C(COc1ccc(F)cc1)Nc1ccc2c(c1)CC1CCC(C2)C1NS(=O)(=O)c1ccc(Cl)s1 (stereo not shown) [GSI-34],–,–,–,able to inhibit cellular proliferation,30%
–,–,–,"CC(C)C[C@H](NC(=O)[C@H](Cc1ccccc1)C[C@@H](O)[C@H](Cc1ccccc1)NC(=O)OC(C)(C)C)C(=O)N[C@@H](Cc1ccccc1)C(N)=O [L-685,458]",–,–,–,able to inhibit cellular proliferation,–
